In PubChem BioAssay (NCI):
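96-well plates; 48 h exposure; 5 concentrations. Endpoints by linear interpolation between flanking doses. Not reached: highest tested concentration assigned. GI50 is the concentration that inhibits growth by half. TGI denotes the concentration required for complete inhibition of growth.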

How the values were obtained:
Test in all cases: NCI tumour cell line growth inhibition, 48 h
786-0 renal = test system: 786-0 renal
A498 renal = test system: A498 renal
A549 NSCLC = test system: A549 NSCLC
ACHN renal = test system: ACHN renal
BT-549 breast = test system: BT-549 breast
CAKI-1 renal = test system: CAKI-1 renal
CCRF-CEM leukemia = test system: CCRF-CEM leukemia
COLO 205 colon = test system: COLO 205 colon
DU-145 prostate = test system: DU-145 prostate
EKVX NSCLC = test system: EKVX NSCLC
HCC-2998 colon = test system: HCC-2998 colon
HCT-116 colon = test system: HCT-116 colon
HCT-15 colon = test system: HCT-15 colon
HL-60(TB) leukemia = test system: HL-60(TB) leukemia
HOP-62 NSCLC = test system: HOP-62 NSCLC
HS 578T breast = test system: HS 578T breast
HT29 colon = test system: HT29 colon
IGROV1 ovarian = test system: IGROV1 ovarian
K-562 leukemia = test system: K-562 leukemia
KM12 colon = test system: KM12 colon
LOX IMVI melanoma = test system: LOX IMVI melanoma
M14 melanoma = test system: M14 melanoma
MALME-3M melanoma = test system: MALME-3M melanoma
MCF7 breast = test system: MCF7 breast
MDA-MB-231 breast = test system: MDA-MB-231 breast
MDA-MB-435 = test system: MDA-MB-435
MOLT-4 leukemia = test system: MOLT-4 leukemia
NCI-H226 lung = test system: NCI-H226 lung
NCI-H23 lung = test system: NCI-H23 lung
NCI-H460 lung = test system: NCI-H460 lung
NCI-H522 lung = test system: NCI-H522 lung
NCI/ADR-RES ovarian = test system: NCI/ADR-RES ovarian
OVCAR-3 ovarian = test system: OVCAR-3 ovarian
OVCAR-4 ovarian = test system: OVCAR-4 ovarian
OVCAR-5 ovarian = test system: OVCAR-5 ovarian
OVCAR-8 ovarian = test system: OVCAR-8 ovarian
PC-3 prostate = test system: PC-3 prostate
RPMI-8226 leukemia = test system: RPMI-8226 leukemia
SF-268 CNS = test system: SF-268 CNS
SF-295 CNS = test system: SF-295 CNS
SF-539 CNS = test system: SF-539 CNS
SK-MEL-2 melanoma = test system: SK-MEL-2 melanoma
SK-MEL-28 melanoma = test system: SK-MEL-28 melanoma
SK-MEL-5 melanoma = test system: SK-MEL-5 melanoma
SK-OV-3 ovarian = test system: SK-OV-3 ovarian
SN12C renal = test system: SN12C renal
SNB-19 CNS = test system: SNB-19 CNS
SNB-75 CNS = test system: SNB-75 CNS
SR leukemia = test system: SR leukemia
SW-620 colon = test system: SW-620 colon
T-47D breast = test system: T-47D breast
TK-10 renal = test system: TK-10 renal
U251 CNS = test system: U251 CNS
UACC-257 melanoma = test system: UACC-257 melanoma
UACC-62 melanoma = test system: UACC-62 melanoma
UO-31 renal = test system: UO-31 renal

## COc1cc(NC(=O)c2ccc(C(F)(F)F)nc2Nc2ccc(Cl)cc2C)cc(OC)c1OC
786-0 renal
  GI50: 5.56 µM
  TGI: 22.4 µM
A498 renal
  GI50: 3.9 µM
  TGI: 23.8 µM
A549 NSCLC
  GI50: 5.82 µM
  TGI: > 100 µM
ACHN renal
  GI50: 3.74 µM
  TGI: 35.5 µM
BT-549 breast
  GI50: 10.7 µM
  TGI: 26.6 µM
CAKI-1 renal
  GI50: 3.36 µM
  TGI: 9.85 µM
CCRF-CEM leukemia
  GI50: 1.58 µM
  TGI: 29.5 µM
COLO 205 colon
  GI50: 4.06 µM
  TGI: 15.5 µM
DU-145 prostate
  GI50: 11.7 µM
  TGI: 57.3 µM
EKVX NSCLC
  GI50: 6.34 µM
  TGI: > 100 µM
HCC-2998 colon
  GI50: 1.89 µM
  TGI: 5.61 µM
HCT-116 colon
  GI50: 3.14 µM
  TGI: 13.4 µM
HCT-15 colon
  GI50: 4.35 µM
  TGI: 21.2 µM
HL-60(TB) leukemia
  GI50: 1.76 µM
  TGI: 15.2 µM
HOP-62 NSCLC
  GI50: 5.95 µM
  TGI: 18.2 µM
HS 578T breast
  GI50: 4.65 µM
  TGI: 38.7 µM
HT29 colon
  GI50: 4.92 µM
  TGI: 19.3 µM
IGROV1 ovarian
  GI50: 0.958 µM
  TGI: 23 µM
K-562 leukemia
  GI50: 3.01 µM
  TGI: > 100 µM
KM12 colon
  GI50: 1.55 µM
  TGI: 13.2 µM
LOX IMVI melanoma
  GI50: 3.23 µM
  TGI: 13.5 µM
M14 melanoma
  GI50: 4.14 µM
  TGI: 18.9 µM
MALME-3M melanoma
  GI50: 4.94 µM
  TGI: 24 µM
MCF7 breast
  GI50: 2.39 µM
  TGI: 16.2 µM
MDA-MB-231 breast
  GI50: 3.73 µM
  TGI: 14.8 µM
MDA-MB-435
  GI50: 4.19 µM
  TGI: 21.3 µM
MOLT-4 leukemia
  GI50: 2.54 µM
  TGI: 18.2 µM
NCI-H226 lung
  GI50: 10.8 µM
  TGI: 31.7 µM
NCI-H23 lung
  GI50: 2.2 µM
  TGI: 10.6 µM
NCI-H460 lung
  GI50: 3.3 µM
  TGI: 12.9 µM
NCI-H522 lung
  GI50: 1.61 µM
  TGI: 14.4 µM
NCI/ADR-RES ovarian
  GI50: 3.62 µM
  TGI: 17.1 µM
OVCAR-3 ovarian
  GI50: 2.41 µM
  TGI: 13.3 µM
OVCAR-4 ovarian
  GI50: 2.77 µM
  TGI: 25.3 µM
OVCAR-5 ovarian
  GI50: 10.8 µM
  TGI: 27.7 µM
OVCAR-8 ovarian
  GI50: 6.19 µM
  TGI: > 100 µM
PC-3 prostate
  GI50: 1.86 µM
  TGI: 10.5 µM
RPMI-8226 leukemia
  GI50: 2.96 µM
  TGI: 17.5 µM
SF-268 CNS
  GI50: 6.67 µM
  TGI: 28.9 µM
SF-295 CNS
  GI50: 5.36 µM
  TGI: 23.1 µM
SF-539 CNS
  GI50: 10.6 µM
  TGI: > 100 µM
SK-MEL-2 melanoma
  GI50: 10.3 µM
  TGI: 28.3 µM
SK-MEL-28 melanoma
  GI50: 4.4 µM
  TGI: 26.4 µM
SK-MEL-5 melanoma
  GI50: 2.95 µM
  TGI: 14.9 µM
SK-OV-3 ovarian
  GI50: 5.15 µM
  TGI: 36.1 µM
SN12C renal
  GI50: 6.75 µM
  TGI: 31 µM
SNB-19 CNS
  GI50: 5.77 µM
  TGI: 48.9 µM
SNB-75 CNS
  GI50: 2.78 µM
  TGI: 18.5 µM
SR leukemia
  GI50: 2.77 µM
  TGI: 13.5 µM
SW-620 colon
  GI50: 5.92 µM
  TGI: 18.8 µM
T-47D breast
  GI50: 2.47 µM
  TGI: 21.3 µM
TK-10 renal
  GI50: 5.83 µM
  TGI: 29.1 µM
U251 CNS
  GI50: 4.86 µM
  TGI: 17.5 µM
UACC-257 melanoma
  GI50: 3.4 µM
  TGI: 19.3 µM
UACC-62 melanoma
  GI50: 3.05 µM
  TGI: 15.9 µM
UO-31 renal
  GI50: 2.68 µM
  TGI: 17.9 µM
